Measured values: ChEMBL document CHEMBL1201862, “PubChem BioAssay data set” (2004)
Several values for one entry are separate records, joined by “and”; a condition that tells them apart may be missing. Equal values may be shown once.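 Assay format: 96-well plates, 48-hour exposure. GI50 is the concentration that inhibits growth by half.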 Activity calls are given as the source filed them. Cut-off read from the data, not from the text of the source: active = GI50 up to about 1.1 µM and inactive = higher.

What was measured:
Test in all cases: inhibition of tumour cell growth, NCI panel, 48 h
RXF 393 = system: RXF 393
UACC-257 = system: UACC-257
NCI-H460 = system: NCI-H460
SF-295 = system: SF-295
SK-MEL-5 = system: SK-MEL-5
SF-539 = system: SF-539
Hs-578T = system: Hs-578T
KM12 = system: KM12
COLO 205 = system: COLO 205
HCC 2998 = system: HCC 2998
MDA-N = system: MDA-N
MCF7 = system: MCF7
NCI/ADR-RES = system: NCI/ADR-RES
MOLT-4 = system: MOLT-4
TK-10 = system: TK-10
HCT-116 = system: HCT-116
Malme-3M = system: Malme-3M
BT-549 = system: BT-549
OVCAR-3 = system: OVCAR-3
SK-MEL-28 = system: SK-MEL-28

Structure (SMILES) | GI50 (RXF 393) | GI50 (UACC-257) | GI50 (NCI-H460) | GI50 (SF-295) | GI50 (SK-MEL-5) | GI50 (SF-539) | GI50 (Hs-578T) | GI50 (KM12) | GI50 (COLO 205) | GI50 (HCC 2998) | GI50 (MDA-N) | GI50 (MCF7) | GI50 (NCI/ADR-RES) | GI50 (MOLT-4) | GI50 (TK-10) | GI50 (HCT-116) | GI50 (Malme-3M) | GI50 (BT-549) | GI50 (OVCAR-3) | GI50 (SK-MEL-28)
O=C(O)C1CC(C2CCCCN2)CN2CCCCC12 (stereo not given) | > 100 µM (inactive) | > 100 µM (inactive) | > 100 µM (inactive) | > 100 µM (inactive) | > 100 µM (inactive) | 57.5 µM (inactive) | > 100 µM (inactive) | > 100 µM (inactive) | > 100 µM (inactive) | > 100 µM (inactive) | > 100 µM (inactive) | > 100 µM (inactive) | > 100 µM (inactive) | > 100 µM (inactive) | > 100 µM (inactive) | > 100 µM (inactive) | > 100 µM (inactive) | > 100 µM (inactive) | > 100 µM (inactive) | > 100 µM (inactive)
CC(C)OC(=O)Nc1c([N+](=O)[O-])cc(C(F)(F)F)cc1[N+](=O)[O-] | 20.1 µM (inactive) | > 100 µM (inactive) | > 100 µM (inactive) | 54.1 µM (inactive) | > 100 µM (inactive) | 23.9 µM (inactive) | 35.1 µM (inactive) | > 100 µM (inactive) | > 100 µM (inactive) | > 100 µM (inactive) | > 100 µM (inactive) | > 100 µM (inactive) | > 100 µM (inactive) | > 46.5 µM (inactive) | > 100 µM (inactive) | > 100 µM (inactive) | > 100 µM (inactive) | > 100 µM (inactive) | > 100 µM (inactive) | > 100 µM (inactive)
Cc1cc2c(cc1C)N1C(Cl)=C3CCCCC3=C(C#N)C1N2 (stereo not given) | 14 µM (inactive) | 8.18 µM (inactive) | 18 µM (inactive) | 20.4 µM (inactive) | 3.72 µM (inactive) | 22.4 µM (inactive) | 7.85 µM (inactive) | 9.02 µM (inactive) | 16.5 µM (inactive) | 8.69 µM (inactive) | 4.15 µM (inactive) | 4.16 µM (inactive) | 6.31 µM (inactive) | 3.48 µM (inactive) | 5.65 µM (inactive) | 1.7 µM (inactive) | 16.8 µM (inactive) | 2.45 µM (inactive) | 16.7 µM (inactive) | 3.3 µM (inactive)
O=C(CSc1n[nH]c(=O)[nH]c1=O)NNC(=O)c1cccc2nc3ccccc3nc12 | > 100 µM (inactive) | 58.7 µM (inactive) | 32.6 µM (inactive) | 59.3 µM (inactive) | 22 µM (inactive) | 71.6 µM (inactive) | 40.4 µM (inactive) | 79.3 µM (inactive) | 31.8 µM (inactive) | 40.8 µM (inactive) | 35.6 µM (inactive) | 38.2 µM (inactive) | > 100 µM (inactive) | > 100 µM (inactive) | > 100 µM (inactive) | > 100 µM (inactive) | 26.5 µM (inactive) | 29.2 µM (inactive) | > 100 µM (inactive) | > 100 µM (inactive)
COc1ccc(C2=Nn3c(nc4sc(-c5ccccc5)cc4c3=O)SC2)cc1 | > 10 µM (inactive) | > 100 µM (inactive) | 48.4 µM (inactive) | > 100 µM (inactive) | > 100 µM (inactive) | > 100 µM (inactive) | 34.4 µM (inactive) | 81.1 µM (inactive) | > 100 µM (inactive) | > 100 µM (inactive) | 81.8 µM (inactive) | > 100 µM (inactive) | > 100 µM (inactive) | > 100 µM (inactive) | > 100 µM (inactive) | 92.3 µM (inactive) | > 100 µM (inactive) | > 100 µM (inactive) | > 100 µM (inactive) | > 100 µM (inactive)
C=CCc1cccc2cc(C(=O)Nc3nc(C45CC6CC(CC(C6)C4)C5)cs3)c(=O)oc12 | 6.08 µM (inactive) | 32.8 µM (inactive) | 29.9 µM (inactive) | 16.3 µM (inactive) | 40.8 µM (inactive) | > 100 µM (inactive) | 16.4 µM (inactive) | 28.1 µM (inactive) | 21.4 µM (inactive) | 33 µM (inactive) | 45 µM (inactive) | > 100 µM (inactive) | 27.2 µM (inactive) | 34.7 µM (inactive) | 30.8 µM (inactive) | > 10 µM (inactive) | 46 µM (inactive) | 70 µM (inactive) | 24.4 µM (inactive) | 61.8 µM (inactive)
N#Cc1ncc(C(Cl)Cl)nc1Cl | 1.75 µM (inactive) | 1.53 µM (inactive) | 1.81 µM (inactive) | 7.24 µM (inactive) | 1.75 µM (inactive) | 1.73 µM (inactive) | 4.66 µM (inactive) | 1.4 µM (inactive) | 1.77 µM (inactive) | 1.69 µM (inactive) | 1.5 µM (inactive) | 1.94 µM (inactive) | 2.14 µM (inactive) | 3.37 µM (inactive) | 2.35 µM (inactive) | 1.67 µM (inactive) | 2.43 µM (inactive) | 1.84 µM (inactive) | 2.12 µM (inactive) | 1.89 µM (inactive)
COc1cc2cc(C(=O)N3CC(CCl)c4ccc(NCCN)cc43)[nH]c2c(OC)c1OC (stereo not given) | 0.105 µM (active) | 0.251 µM (active) | 0.0658 µM (active) | 0.197 µM (active) | 0.116 µM (active) | 0.209 µM (active) | 0.472 µM (active) | 0.206 µM (active) | 0.222 µM (active) | 0.146 µM (active) | 0.176 µM (active) | 0.0361 µM (active) | 0.208 µM (active) | 0.0575 µM (active) | 0.33 µM (active) | 0.217 µM (active) | 0.172 µM (active) | 0.345 µM (active) | 0.236 µM (active) | 0.249 µM (active)
CCOC(=O)c1[nH]cc(C)c1-c1c[nH]c2ccccc12 | 30.1 µM (inactive) | 26.2 µM (inactive) | 12.1 µM (inactive) | 29 µM (inactive) | 13.8 µM (inactive) | 22.8 µM (inactive) | 16.7 µM (inactive) | 42.6 µM (inactive) | 15.4 µM (inactive) | 19.9 µM (inactive) | 24.9 µM (inactive) | 22.3 µM (inactive) | 21.4 µM (inactive) | 4.11 µM (inactive) | 19.5 µM (inactive) | 6.93 µM (inactive) | 42.7 µM (inactive) | 26.5 µM (inactive) | 26.7 µM (inactive) | 39.4 µM (inactive)
O=C1CS(=O)(=O)C(c2cccc(Oc3ccccc3)c2)N1c1ccc(Cl)cc1 (stereo not given) | 18.6 µM (inactive) | 14.8 µM (inactive) | 15 µM (inactive) | 26.5 µM (inactive) | 12.3 µM (inactive) | 19.5 µM (inactive) | 30.1 µM (inactive) | 14.8 µM (inactive) | 17.7 µM (inactive) | 3.4 µM (inactive) | 16.8 µM (inactive) | 13.8 µM (inactive) | 18.9 µM (inactive) | 20.9 µM (inactive) | 22.6 µM (inactive) | 7.91 µM (inactive) | 25.4 µM (inactive) | 24.7 µM (inactive) | 24.2 µM (inactive) | 32.4 µM (inactive)
CC(C)C1=C2CCC3(C)C(CCC4C5C6OCC5(CCC6(C)C)CCC43C)C2(C)CC1 (stereo not given) | 20.6 µM (inactive) | 18.1 µM (inactive) | 14 µM (inactive) | 19.7 µM (inactive) | 21.8 µM (inactive) | 16.9 µM (inactive) | 22.8 µM (inactive) | 16.9 µM (inactive) | 16.7 µM (inactive) | 18.8 µM (inactive) | 13.7 µM (inactive) | 23.4 µM (inactive) | 18.9 µM (inactive) | 16.3 µM (inactive) | 16.7 µM (inactive) | 18.8 µM (inactive) | 20.8 µM (inactive) | 22.4 µM (inactive) | 21.3 µM (inactive) | 17.8 µM (inactive)
O=S(=O)(O)c1ccc2c(/N=N/c3ccc(S(=O)(=O)O)c4ccccc34)c(O)c(S(=O)(=O)O)cc2c1 | > 100 µM (inactive) and 63.5 µM (inactive) | > 100 µM (inactive) | > 100 µM (inactive) | > 100 µM (inactive) | > 100 µM (inactive) | > 100 µM (inactive) | > 100 µM (inactive) | > 100 µM (inactive) | > 100 µM (inactive) | > 100 µM (inactive) | > 100 µM (inactive) | > 100 µM (inactive) | > 100 µM (inactive) | > 100 µM (inactive) | > 100 µM (inactive) | > 100 µM (inactive) | > 100 µM (inactive) | > 100 µM (inactive) | > 100 µM (inactive) | > 100 µM (inactive)
N#Cc1c(-c2ccc(F)cc2)c(-c2ccc(F)cc2)nn(CCO)c1=O | 0.378 µM (active) | 1.19 µM (inactive) | 0.237 µM (active) | 0.224 µM (active) | 0.175 µM (active) | 0.198 µM (active) | 0.885 µM (active) | 0.126 µM (active) | 0.24 µM (active) | 0.605 µM (active) | 0.0492 µM (active) | 3.16 µM (inactive) | 0.805 µM (active) | 0.242 µM (active) | 3.36 µM (inactive) | 0.119 µM (active) | 0.743 µM (active) | 0.879 µM (active) | 0.242 µM (active) | 17.8 µM (inactive)
CCCCCCC(O)C(O)CCC(O)C1CCC(CCCCC(O)CC2=CC(C)OC2=O)O1 (stereo not given) [ACETOGENINS] | 5.87 µM (inactive) | 1.86 µM (inactive) | 2.59 µM (inactive) | 1.83 µM (inactive) | 1.04 µM (active) | 4.29 µM (inactive) | 2.23 µM (inactive) | 2.15 µM (inactive) | 1.75 µM (inactive) | 15.9 µM (inactive) | 2.32 µM (inactive) | 1.26 µM (inactive) | 1.14 µM (inactive) | 2.59 µM (inactive) | 8.09 µM (inactive) | 2.8 µM (inactive) | 17 µM (inactive) | 23.4 µM (inactive) | 1.71 µM (inactive) | 4.66 µM (inactive)
